Test results as given in paper PMC13267291, “In vivo functional profiling and structural characterization of the human GLP1R A316T variant” (Science Advances, 2026).

Legend:
[1] = test system: SNAP/FLAG-hGLP1R^A316T versus ^WT; test: Real-time cytosolic calcium assay (Cal-520, AM) in transduced hGLP1R^-/- mouse islets; assay type: cell-based, human; details: 100 nM; 6 mM glucose; AUC; n = 3-4; fig. S7D-H
Description: signal serially monitored for 30 min. The TR-FRET ratio, i.e. the ratio of fluorescence intensities at 590 and 490 nm, was considered indicative of the proximity of the GLP-1R ECD to the plasma membrane.
Baseline-normalised AUCs were used to generate concentration– response curves fitted using GraphPad Prism 10.1.2, with logEC50 and Emax calculated for each replicate dose response curve.
Real- time c ytosolic c alcium a ssay hGLP1R-/- mouse islets were transduced with pAV- SNAP/FLAG-hGLP1RWT or A316T adenoviruses for 24 hours, labelled with the Ca2+ dye Cal-520, AM (4.5 μM; Stratech) diluted in KBRH buffer containing 6 mM glucose for 1 hour and encased in Matrigel onto […] glass bottom MatTek dishes. Islets were then imaged every 6 s at 488 nm using a Nikon Eclipse Ti microscope with an ORCA-Flash 4.0 camera (Hamamatsu) and Metamorph software (Molecular Devices) at 37°C on a heated stage before and after addition of the indicated GLP-1RA followed by 11 mM glucose and then 20 mM KCl at the indicated time points. Raw fluorescence intensity traces from islet ROIs were extracted using Fiji. Responses were plotted relative to the average fluorescence intensity during the 6 mM glucose baseline period, before agonist addition, and AUCs separately calculated for the GLP- 1RA + 6 mM and 11 mM glucose […]
Isolation o f detergent-resistant membrane (D RM) fractions
To purify lipid rafts, […] fractions were isolated from INS-1 832/3 Glp1r-/- SNAP/FLAG-hGLP1RWT or A316T cells by ultracentrifugation based on their insolubility in non-ionic detergents at 4°C and their low density because of their high lipid-to- protein ratio. Cells seeded onto 6-cm dishes were stimulated ± 100 […]
mM tris-HCl, pH 7.0 buffer supplemented with cOmplete EDTA-free protease inhibitor cocktail (Roche) and phosphatase inhibitor cocktail 2 (Sigma-Aldrich) for 10-15 minutes on a rocking platform at 4°C. The cell suspension was collected and homogenised by passing through a 21-gauge needle, followed by ultracentrifugation at 63,000 g f or 1 hour at 4°C with a Sorvall Discovery M120 ultracentrifuge. Pellets

[2] = test system: SNAP/FLAG-hGLP1R^A316T versus ^WT; test: GLP-1R recycling assay; assay type: cell-based, human; details: INS-1 832/3 sublines; 1 hour agonist, 1 and 3 hours recycling; n = 3-4; Fig. 7H
Description: INS-1 832/3 Glp1r^−/− SNAP/FLAG-hGLP1R^WT or ^A316T cells were seeded as above for 24 hours, washed with HBSS, pretreated with vehicle or GLP-1RA for 1 hour at 37°C in complete medium, washed again, and treated with 100 nM exendin-4–TMR in reverse time order for 3 hours and 1 hour at 37°C in complete medium. Plates were then promptly imaged after washing as above. In this assay, total exendin-4–TMR uptake is indicative of residual surface receptor at the end of the GLP-1RA treatment and cumulative reappearance of the surface receptor during the recycling period.

[3] = test system: hGLP1R^A316T-SmBiT versus hGLP1R^WT-SmBiT; test: Mini-Gs recruitment by NanoBiT complementation; assay type: cell-based, human; details: serial doses up to 100 nM; n = 5; Fig. 7L
Description: For mini-Gs recruitment, INS-1 832/3 Glp1r^−/− cells were seeded in 6-cm dishes and transiently cotransfected with 1.7 μg each of hGLP1R^WT or ^A316T-SmBiT and LgBiT-mini-Gs constructs for 24 hours. Cells were then detached, resuspended in Hanks’ balanced salt solution (HBSS) containing NanoGlo Live Cell Reagent (1:20; Promega) with furimazine, and seeded onto white 96-well half-area plates. Baseline luminescence was immediately recorded over 8 min at 37°C in a Flexstation 3 plate reader (Molecular Devices) and for a further 30 min after GLP-1RA addition at serial doses up to 100 nM. Readings were taken every 30 s and normalized to average well baseline, and average vehicle-induced signal was subtracted to establish the agonist-induced effect. To measure β-arrestin 2 recruitment, cells were processed as above with slight modifications: INS-1 832/3 Glp1r^−/− cells were cotransfected with 1.77 μg each of hGLP1R^WT or ^A316T-SmBiT and LgBiT–β-arrestin 2 plasmids for 24 hours, and GLP-1RAs were added at serial doses up to 1 μM. AUCs were calculated for each agonist concentration and fitted to log(agonist) versus response four-parameter curves using GraphPad Prism 10.1.2, with errors propagated for mini-Gs over β-arrestin 2 recruitment bias calculations.

[4] = test system: SNAP/FLAG-hGLP1R^A316T versus ^WT; test: Real-time cAMP imaging (cADDis) in INS-1 832/3 sublines; assay type: cell-based, rat; details: 100 nM, n = 4, no significant differences, fig. S8K-P
Description: To measure cAMP, hGLP1R^A316T/A316T versus ^+/+ control mouse islets, or INS-1 832/3 SNAP/FLAG-hGLP1R^WT versus ^A316T cells cultured on glass-bottom MatTek dishes, were transduced with cADDis (Green Gs cADDis cAMP Kit, Montana Molecular), a baculovirus genetically encoding a fluorescent cAMP in situ biosensor, following the manufacturer’s instructions. Transduced islets were subsequently encased into Matrigel on glass-bottom MatTek dishes 24 hours after transduction, and both islets and cells were imaged at λex = 488 nm in a Nikon Eclipse Ti spinning disk confocal microscope and 20× objective with an ORCA-Flash 4.0 camera (Hamamatsu) for time-lapse recordings with image acquisitions every 6 s in KRBH buffer containing 0.1% (w/v) BSA and 6 mM glucose for 2 min to record the baseline, with 100 nM GLP-1RA subsequently added by manual pipetting, and islets imaged for a further 5 min before addition of 100 μM IBMX + 10 μM forskolin for the final 2 min of the acquisition. Raw green fluorescence intensity traces were extracted from whole islet regions of interest (ROIs) using Fiji, and mean intensities were calculated for each ROI and time point. Responses were plotted relative to average fluorescence intensity per islet during the baseline period before GLP-1RA addition.

| Substance | Agonist-induced Ca^2+ responses, A316T versus WT [1] | A316T receptor recycling to the plasma membrane versus WT [2] | A316T mini-Gs recruitment versus WT, log(Emax/EC50) [3] | cAMP responses, A316T versus WT [4] |
| --- | --- | --- | --- | --- |
| exendin-F1 | increased | not different from WT | increased potency | tendency for increased cAMP |
| GLP-1(7-36)NH2 | not significantly different | significantly reduced | No significant changes | tendency for increased cAMP |
| exendin-4 | not significantly different | not different from WT | No significant changes | reduced responses |
